Measured values taken from patent publication US20230131899A1, “INHIBITORS OF MICROBIALLY INDUCED AMYLOID” (Axial Therapeutics, Inc., priority 2020, published 2023).
Where two headings read alike, the source gives them in different places.

Target: T1, human α-synuclein (Homo sapiens, UniProt P37840)
T1 construct: the full-length gene for untagged human α-synuclein was inserted; made in house; host or cells: E. coli BL21(DE3), plasmid derived from pT7 or pET11a
Assay: Cell-free Thioflavin T assay of α-synuclein aggregation (αSyn ThT Assay)
Format: biochemical
Conditions: αSyn 50 μM
Summary of the method: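 Untagged full-length human α-synuclein from E. coli, 50 μM, with 20-40 μM ThT, 1% DMSO, compound at 20-100 μM and a glass bead, 37° C. with shaking. Fluorescence (ex 438/em 495 nm) read hourly to 73 h. Compound-only background subtracted and values normalised to vehicle at 36-72 h or final timepoint, giving % inhibition.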

[1] = mean % inhibition of αSyn aggregation relative to DMSO control, compounds at 100 μM, read-out: αSyn ThT Assay % Inhibition
[2] = compounds at 100 μM, class symbol, read-out: αSyn ThT Assay % Inhibition (activity range)
[3] = class symbol, compounds 100 μM, read-out: αSyn ThT Assay % inhibition, activity range
[4] = mean percent inhibition relative to DMSO control, compounds 100 μM, read-out: αSyn ThT Assay % inhibition

| Compound | inhibition at 100 µM [1] [%] | inhibition at 100 µM [2] [%] | inhibition at 100 µM [3] [%] | inhibition at 100 µM [4] [%] |
| --- | --- | --- | --- | --- |
| CNC(=O)CCCCN1CC(C(=O)O)n2c(c(-c3cccc(C(F)(F)F)c3)c(Cc3cccc4ccccc34)cc2=O)S1(=O)=O (centres unmarked) [Compound 038, 2-(5-(methylamino)-5-oxopentyl)-8-(naphthalen-1-ylmethyl)-6-oxo-9-(3-(trifluoromethyl)phenyl)-3,4-dihydro-2H,6H-pyrido[1,2-e][1,2,5]thiadiazine-4-carboxylic acid 1,1-dioxide] | 42 | 31 to 60 |  |  |
| O=C(O)C1CN(Cc2cccnc2)c2c(-c3cccc(C(F)(F)F)c3)c(Cc3cccc4ccccc34)c(Cl)c(=O)n21 (centres unmarked) [Compound 169, 6-chloro-7-(naphthalen-1-ylmethyl)-5-oxo-1-(pyridin-3-ylmethyl)-8-(3-(trifluoromethyl)phenyl)-1,2,3,5-tetrahydroimidazo[1,2-a]pyridine-3-carboxylic acid] |  |  | 31 to 60 | 33 |
| Cn1c(=O)c2c(nc(CCCCCCN3CC(C(=O)O)n4c(c(-c5cccc(C(F)(F)F)c5)c(Cc5cccc6ccccc56)cc4=O)S3(=O)=O)n2C)n(C)c1=O (centres unmarked) [Compound 046, 8-(naphthalen-1-ylmethyl)-6-oxo-9-(3-(trifluoromethyl)phenyl)-2-(6-(1,3,7-trimethyl-2,6-dioxo-2,3,6,7-tetrahydro-1H-purin-8-yl)hexyl)-3,4-dihydro-2H,6H-pyrido[1,2-e][1,2,5]thiadiazine-4-carboxylic acid 1,1-dioxide] | 28 | 11 to 30 |  |  |
| CCCN1CC(C(=O)O)n2c(c(-c3cccc(C(F)(F)F)c3)c(Cc3cccc4ccccc34)c(O)c2=O)S1(=O)=O (centres unmarked) [Compound 141, 7-hydroxy-8-(naphthalen-1-ylmethyl)-6-oxo-2-propyl-9-(3-(trifluoromethyl)phenyl)-3,4-dihydro-2H,6H-pyrido[1,2-e][1,2,5]thiadiazine-4-carboxylic acid 1,1-dioxide] |  |  | > 60 | 79 |
| Cc1c(Cc2cccc3ccccc23)c(-c2cccc(C(F)(F)F)c2)c2n(c1=O)C(C(=O)O)CN(C)S2(=O)=O (centres unmarked) [Compound 068, 2,7-dimethyl-8-(naphthalen-1-ylmethyl)-6-oxo-9-(3-(trifluoromethyl)phenyl)-3,4-dihydro-2H,6H-pyrido[1,2-e][1,2,5]thiadiazine-4-carboxylic acid 1,1-dioxide] | 74 | > 60 |  |  |
| Cn1c(=O)c2c(ncn2CCCCN2CC(C(=O)O)n3c(c(-c4cccc(C(F)(F)F)c4)c(Cc4cccc5ccccc45)cc3=O)S2(=O)=O)n(C)c1=O (centres unmarked) [Compound 033, 2-(4-(1,3-dimethyl-2,6-dioxo-1,2,3,6-tetrahydro-7H-purin-7-yl)butyl)-8-(naphthalen-1-ylmethyl)-6-oxo-9-(3-(trifluoromethyl)phenyl)-3,4-dihydro-2H,6H-pyrido[1,2-e][1,2,5]thiadiazine-4-carboxylic acid 1,1-dioxide] | 6 | -10 to 10 |  |  |
| O=C(O)C1CN(Cc2ccccc2)c2c(-c3cccc(C(F)(F)F)c3)c(Cc3cccc4ccccc34)c(Br)c(=O)n21 (centres unmarked) [Compound 003, 1-benzyl-6-bromo-7-(naphthalen-1-ylmethyl)-5-oxo-8-(3-(trifluoromethyl)phenyl)-1,2,3,5-tetrahydroimidazo[1,2-a]pyridine-3-carboxylic acid] |  |  | > 60 | 76 |
| O=C(O)C1CSc2c(-c3cccc(C(F)(F)F)c3)c(C(F)(F)c3cccc4ccccc34)cc(=O)n21 (centres unmarked) [Compound 073, 7-(difluoro(naphthalen-1-yl)methyl)-5-oxo-8-(3-(trifluoromethyl)phenyl)-2,3-dihydro-5H-thiazolo[3,2-a]pyridine-3-carboxylic acid] | 76 | > 60 |  |  |
| Nc1c(Cc2cccc3ccccc23)c(-c2cccc(C(F)(F)F)c2)c2n(c1=O)C(C(=O)O)CS2 (single isomer, unassigned) [Compound 020b, 6-amino-7-(naphthalen-1-ylmethyl)-5-oxo-8-(3-(trifluoromethyl)phenyl)-2,3-dihydro-5H-thiazolo[3,2-a]pyridine-3-carboxylic acid] | 25 | 11 to 30 |  |  |
| CN1CC(C(=O)O)n2c(c(-c3cccc(C(F)(F)F)c3)c(Cc3cccc4ccccc34)c(C(=O)NC(C)(C)C)c2=O)S1(=O)=O (centres unmarked) [Compound 158, 7-(tert-butylcarbamoyl)-2-methyl-8-(naphthalen-1-ylmethyl)-6-oxo-9-(3-(trifluoromethyl)phenyl)-3,4-dihydro-2H,6H-pyrido[1,2-e][1,2,5]thiadiazine-4-carboxylic acid 1,1-dioxide] |  |  | > 60 | 79 |
| CCCN1CC(C(=O)O)n2c(c(-c3cccc(C(F)(F)F)c3)c(Cc3cccc4ccccc34)c(OCC)c2=O)S1(=O)=O (centres unmarked) [Compound 143, 7-ethoxy-8-(naphthalen-1-ylmethyl)-6-oxo-2-propyl-9-(3-(trifluoromethyl)phenyl)-3,4-dihydro-2H,6H-pyrido[1,2-e][1,2,5]thiadiazine-4-carboxylic acid 1,1-dioxide] |  |  | > 60 | 96 |
| CCc1c(Cc2cccc3ccccc23)c(-c2cccc(C(F)(F)F)c2)c2n(c1=O)C(C(=O)O)CN2Cc1ccccc1 (centres unmarked) [Compound 140, 1-benzyl-6-ethyl-7-(naphthalen-1-ylmethyl)-5-oxo-8-(3-(trifluoromethyl)phenyl)-1,2,3,5-tetrahydroimidazo[1,2-a]pyridine-3-carboxylic acid] |  |  | 31 to 60 | 48 |
| CC(C)N1CC(C(=O)O)n2c1c(-c1cccc(C(F)(F)F)c1)c(Cc1cccc3ccccc13)c(Cl)c2=O (centres unmarked) [Compound 179, 6-chloro-1-isopropyl-7-(naphthalen-1-ylmethyl)-5-oxo-8-(3-(trifluoromethyl)phenyl)-1,2,3,5-tetrahydroimidazo[1,2-a]pyridine-3-carboxylic acid] |  |  | > 60 | 72 |
| CCCN1CC(C(=O)O)n2c(c(-c3cccc(C(F)(F)F)c3)c(Cc3cccc4ccccc34)c(C(N)=O)c2=O)S1(=O)=O (centres unmarked) [Compound 172, 7-carbamoyl-8-(naphthalen-1-ylmethyl)-6-oxo-2-propyl-9-(3-(trifluoromethyl)phenyl)-3,4-dihydro-2H,6H-pyrido[1,2-e][1,2,5]thiadiazine-4-carboxylic acid 1,1-dioxide] |  |  | > 60 | 98 |
| O=C(O)C1CN(CCCCCO)c2c(-c3cccc(C(F)(F)F)c3)c(Cc3cccc4ccccc34)c(Cl)c(=O)n21 (centres unmarked) [Compound 199, 6-chloro-1-(5-hydroxypentyl)-7-(naphthalen-1-ylmethyl)-5-oxo-8-(3-(trifluoromethyl)phenyl)-1,2,3,5-tetrahydroimidazo[1,2-a]pyridine-3-carboxylic acid] |  |  | 11 to 30 | 29 |
| Cn1c(=O)c2c(nc(CCCCN3CC(C(=O)O)n4c(c(-c5cccc(C(F)(F)F)c5)c(Cc5cccc6ccccc56)cc4=O)S3(=O)=O)n2C)n(C)c1=O (centres unmarked) [Compound 044, 8-(naphthalen-1-ylmethyl)-6-oxo-9-(3-(trifluoromethyl)phenyl)-2-(4-(1,3,7-trimethyl-2,6-dioxo-2,3,6,7-tetrahydro-1H-purin-8-yl)butyl)-3,4-dihydro-2H,6H-pyrido[1,2-e][1,2,5]thiadiazine-4-carboxylic acid 1,1-dioxide] | 10 | -10 to 10 |  |  |
